Reference: the supplement of paper PMC11208160

Assay: recombinant barcode read abundance after kanamycin selection (control-corrected) (log10(CPM+1)); higher = more efficient recombination; sequences stand for … in AGTGCAGAGAAAATCGGCCAGTTTTCTCTGCCTGCAGTCCGCATGCCGT…AGATTTATGCAGCGGACTGCCTTTCTCCCAAAGTGATAAACCGGACAGTATCATGGACCGGTTTTCCCGGTAATCCGTATTTGCAAGGTTGGTTTCACT; site = the 11-nt target
Outline: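 This pooled E. coli screen matched targets with IS621 bridge RNA target-binding loops. Plating was done in duplicate on chloramphenicol/ampicillin LB agar as a control and on chloramphenicol/ampicillin/kanamycin plus 0.1 mM IPTG. Recombination efficiency reflects barcode counts at recombinant junctions as counts per million, averaged and control-corrected. The figures are log10(CPM+1).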
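Further: IS621 recombinase and bridge RNA in Escherichia coli cells.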

Sequence | recombinant barcode read abundance (log10)
ATGCATCCTTGGGTTCTAACCTGTTGCCT (site AAGCATCCTAG) | 0.0651
ATGCATCCTTGGGTTCTAACCTGTTGCCT (site ACGCATCCTAG) | 0.0924
ATGCATCCTTGGGTTCTAACCTGTTGCCT (site AGGCATCCTAG) | 0
ATGCATCCTTGGGTTCTAACCTGTTGCCT (site ATGCATCCTAG) | 1.99
ATGCCATCTTGGGTTCTAACCTGTTGCCT (site ATACCATCTAG) | 0.434
ATGCCATCTTGGGTTCTAACCTGTTGCCT (site ATCCCATCTAG) | 0.885
ATGCCATCTTGGGTTCTAACCTGTTGCCT (site ATGCCATCTAG) | 0.503
ATGCCATCTTGGGTTCTAACCTGTTGCCT (site ATTCCATCTAG) | 0.149
ATGGACACTTGGGTTCTAACCTGTTGCGT (site ATGGACACTAC) | 1.93
ATGGACACTTGGGTTCTAACCTGTTGCGT (site GACTGGCCTCT) | 0.133
ATGGCGCCTTGGGTTCTAACCTGTTGCCT (site AAGGCGCCTAG) | 0.296
ATGGCGCCTTGGGTTCTAACCTGTTGCCT (site ACGGCGCCTAG) | 0.846
ATGGCGCCTTGGGTTCTAACCTGTTGCCT (site AGGGCGCCTAG) | 0.183
ATGGCGCCTTGGGTTCTAACCTGTTGCCT (site ATGGCGCCTAG) | 0.856
ATTAAGTCTTGGGTTCTAACCTGTTGCCT (site AATAAGTCTAG) | 0.0662
ATTAAGTCTTGGGTTCTAACCTGTTGCCT (site ACTAAGTCTAG) | 0.08
ATTAAGTCTTGGGTTCTAACCTGTTGCCT (site AGTAAGTCTAG) | 0.0808
ATTAAGTCTTGGGTTCTAACCTGTTGCCT (site ATTAAGTCTAG) | 0.359

Sequence | recombinant barcode read abundance (log10)
ATTAGGACTTGGGTTCTAACCTGTTGCTG (site ATTAGGACTCA) | 2.12
ATTAGGACTTGGGTTCTAACCTGTTGCTG (site ATTAGGACTCT) | 1.56
ATTCAGACTTGGGTTCTAACCTGTTGCGG (site ATCCAGGCTCC) | 0.113
ATTCAGACTTGGGTTCTAACCTGTTGCGG (site ATTCAGACTCC) | 2.33
ATTCCATCTTGGGTTCTAACCTGTTGCCT (site ATACCATCTAG) | 0.57
ATTCCATCTTGGGTTCTAACCTGTTGCCT (site ATCCCATCTAG) | 0.281
ATTCCATCTTGGGTTCTAACCTGTTGCCT (site ATGCCATCTAG) | 0.12
ATTCCATCTTGGGTTCTAACCTGTTGCCT (site ATTCCATCTAG) | 0.538
ATTGCTACTTGGGTTCTAACCTGTTGCCA (site ATTGCTACTTG) | 0.122
ATTGCTACTTGGGTTCTAACCTGTTGCCA (site GAACAGCCTAC) | 0.143
ATTGGCTCTTGGGTTCTAACCTGTTGCCT (site ATTGGATCTAG) | 0.339
ATTGGCTCTTGGGTTCTAACCTGTTGCCT (site ATTGGCTCTAG) | 0.684
ATTGGCTCTTGGGTTCTAACCTGTTGCCT (site ATTGGGTCTAG) | 0.0639
ATTGGCTCTTGGGTTCTAACCTGTTGCCT (site ATTGGTTCTAG) | 0.0735
ATTGGTCCTTGGGTTCTAACCTGTTGCAT (site ATTGCTCCTAG) | 0.364
ATTGGTCCTTGGGTTCTAACCTGTTGCAT (site ATTGGTCCTAT) | 1.92
ATTTCGACTTGGGTTCTAACCTGTTGCGG (site ATTTCGACTCC) | 0.713
ATTTCGACTTGGGTTCTAACCTGTTGCGG (site GCAGGTGCTAA) | 0.021
